In patent US7927634B2, “Compositions and methods for treating angiogenesis-related diseases, wounds and cosmetic use of components of Angelica sinensis, and methods of preparation thereof” (Sunny Biodiscovery, Inc., priority 2004, dated 2011):

Assays:
[1] = tested on: full thickness wounds in human skin graft on SCID mice; assay: Wound closure in human skin/SCID mouse chimera model; type: in vivo, human skin grafted on SCID mice; details: closed/total animals, ointment every two days, SBD.4 (HPLC-purified) in 2% CMC, becaplermin as Regranex
Excerpt: Human skin graft in severe combined immunodeficient (SCID) mice is a powerful model for evaluating the effect of wound-healing drug-candidates on full-thickness wounds (Juhasz et al., 1993). The wound model in human skin/SCID chimera features normal migration of neutrophils and macrophages to the wound bed, as well as normal expression of growth factors associated with wound-healing, and therefore provides a good approximation of human dermal wound-healing process (Matsumoto et al., 1997). The disadvantage of this model is that it is delicate to handle and time-consuming. The donor skin must be immediately placed on ice and taken to the lab, where a 10-hour grafting procedure follows. We used surgical waste skin obtained under informed consent from a patient undergoing abdominoplasty.
Skin was defatted (if it is not well defatted, the remaining adipose tissue easily undergoes necrosis, which interferes with graft taking. But on the other side, removing the underlying fat tissue too slowly or too zealously can also damage the skin and compromise the graft), and grafted (2.5×2.5 cm) on 15 SCID mice (Charles River Labs), using 10-12 stitches per graft. Here, the challenge is to suture the thick human skin with the much thinner rodent tissue.
After 6 weeks, when the graft anastomosed with the murine skin 8 mm (diameter) full thickness wounds were excised in the human skin. Mice received treatment (ointment every two days) of either becaplermin (Regranex, positive control), 2% carboxymethylcellulose (CMC, negative control) or SBD.4 in 2% CMC on the day of wounding and every second day thereafter. Initial wound closure (defined by the coverage of the base of the wound with bridging granular tissue and new epithelium) was assessed every 3 days.

[2] = tested on: full thickness excisional wounds in genetically diabetic mice; assay: Wound closure in genetically diabetic mice; type: in vivo, mouse; details: for Becaplermin (% closure): median, becaplermin 5 ug/wound in CMC gel, n = 6; for Stimulation by becaplermin relative to Control (control = 1): ratio of median closure, becaplermin 5 ug/wound
Excerpt: We have chosen to use the genetically diabetic mice (13 week old female BKS Cg-m +/+ Lepr(db), stock # 642, Jackson Labs) because it is an optimal model reflecting the impaired wound healing in a segment of the population particularly vulnerable to chronic wounds—the diabetic patients. This genetically diabetic mouse model is well established as documented by over 50 publications (for example see Tsuboi et al., 1992). Many companies have also used it as a standard pre-clinical model, including Johnson & Johnson, which included it in the pre-clinical data package submitted to FDA as part of their IND application for becaplermin. […]
Twelve mice were divided in 2 groups and 8 mm (diameter) full thickness excisional wounds were performed under anesthesia on each side of the animal with a punch biopsy tool and covered by sterile gauze (occlusive dressings were not used as they considerably delay wound healing, according to the experience of the Principal Inventor and to the published reports (Lasa et al., 1993). The number of animals per group was based on the previous publications with this model; Jacobi et al., 2002). In Group 1 (the experimental treatment group), one wound on each animal was treated by 50 ul of “high” concentration of SBD.4 (10 mg per wound) and the other one by 50 ul of “low” concentration of SBD.4 (2 mg per wound). In Group 2 (negative control), both wounds were treated by PBS (phosphate buffered saline). Treatments were applied on the first day and every second day thereafter. Wound surface were measured every second day. Wound closure was determined by the following formula: percent closure={(area on day 0−open area)/area on day 0}×100. Wounds were considered closed if moist granulation tissue was no longer apparent, and the wound appeared covered with new epithelium.
Twelve mice were divided in two groups and two wounds per mouse were effectuated as in Example 5. In order to exclude the possibility of mouse-to-mouse variability in wound healing, in this experiment every mouse was treated by the test sample on one wound and by PBS (negative control) on another wound. Thus, one group of 6 mice was treated with 50 ul of SBD.4 (2 mg/wound) on one wound, and by 50 ul of PBS on the other wound, while the second group of 6 mice was treated with becaplermin (positive control; 5 ug in 50 ul CMC—carboxymethylcellulose—gel) on one and PBS on another wound. The concentration of becaplermin was based on the dose used by Johnson & Johnson in their pre-clinical studies (2) and on published studies with PDGF-B, in the db/db model (Greenhalgh et al., 1990).
Treatments were applied on the first day and every second day thereafter. Wound surface were measured every second day. Wound closure for each wound was determined by the formula: percent closure={(area on day 0−open area)/area on day 0}×100. Wounds were considered closed if moist granulation tissue was no longer apparent, and the wound appeared covered with new epithelium. The dynamics of wound closure for the 2 groups is plotted on FIG. 6 (means) and Table II (medians).

bovine endothelial cells = assay: Tridimensional tube formation assay, in vitro; type: cell-based; details: bFGF positive control, 15 ng/ml or 10 ng/ml; 2-5 weeks; FIG. 3C
Method: FIG. 3. Tridimensional tube formation assay, in vitro. A: Capillary endothelial cells form a monolayer in the absence of a remodeling stimulus. B: SBD.4 (5 μg/ml, purified by HPLC) induces remodeling of the monolayer that culminates in a tridimensional network of capillary structures. […]
In this model, capillary-like structures are induced by plating bovine endothelial cells (about 8000 cells per well) in a 96 well tissue culture-treated plate (Costar) in DMEM supplemented with 5% calf serum (Hyclone, Logan, Utah), with or without an endothelial cell stimulatory growth factor. […] Cells grown without such factor form a monolayer (FIG. 3A).

Becaplermin: becaplermin (Regranex, Johnson & Johnson), positive control for wound healing
# animals showing initial wound closure ([1]; Day 3): 0/5 | # animals showing initial wound closure ([1]; Day 6): 1/5 | # animals showing initial wound closure ([1]; Day 9): 2/4 | # animals showing initial wound closure ([1]; Day 12): 4/4 | # animals showing initial wound closure ([1]; Day 16): 4/4 | wound closure versus PBS ([2]; Example 6, becaplermin 5 ug in 50 ul CMC gel per wound, FIG. 6 means, one-way ANOVA): not meaningfully different from the control | Becaplermin (% closure) ([2]; Example 6, day 1): 0.0% | Becaplermin (% closure) ([2]; Example 6, day 3): 1.7% | Becaplermin (% closure) ([2]; Example 6, day 5): 11.9% | Becaplermin (% closure) ([2]; Example 6, day 7): 41.2% | Becaplermin (% closure) ([2]; Example 6, day 9): 65.8% | Becaplermin (% closure) ([2]; Example 6, day 11): 86.7% | Stimulation by becaplermin relative to Control (control = 1) ([2]; day 3): 1.1 | Stimulation by becaplermin relative to Control (control = 1) ([2]; day 5): 0.4 | Stimulation by becaplermin relative to Control (control = 1) ([2]; day 7): 1.1 | Stimulation by becaplermin relative to Control (control = 1) ([2]; day 9): 1.3 | Stimulation by becaplermin relative to Control (control = 1) ([2]; day 11): 1.3

bFGF: basic fibroblast growth factor, potent angiogenesis stimulator used as positive control
induction of capillary-like structures (remodeling response) (bovine endothelial cells): form capillary-like structures
